Laboratory results reported in publication doi:10.1101/2020.08.18.255380v4 (biorxiv, 2021).

Tests used:
[1] = target: DalS (Salmonella enterica, UniProt Q8ZPA3); assay: fluorescence; format: binding
[2] = target: DalS (Salmonella enterica, UniProt Q8ZPA3, A147S/A76D/D216E/F117L/T197Y/Y148Q); assay: biochemical
[3] = target: DalS (Salmonella enterica, UniProt Q8ZPA3, A147S); assay: biochemical
[4] = target: DalS (Salmonella enterica, UniProt Q8ZPA3, A147S/F117L/Y148Q); assay: biochemical
[5] = target: DalS (Salmonella enterica, UniProt Q8ZPA3, Y148Q); assay: biochemical
[6] = target: DalS (Salmonella enterica, UniProt Q8ZPA3, A147S/A76D/D216E/F117L/S60R/Y148Q); assay: biochemical
[7] = target: DalS (Salmonella enterica, UniProt Q8ZPA3, F117L); assay: biochemical

SMILES: C[C@@H](N)C(=O)O [D-alanine]
- Kd [1]: 5.4 ± 0.4 µM
- Kd [2]: 14 ± 1 µM
- Kd [3]: 0.62 ± 0.03 µM

SMILES: N[C@H](CO)C(=O)O [D-serine]
- Kd [1]: 12 ± 1 µM
- Kd [4]: 43 ± 1 µM
- Kd [2]: 4.8 ± 0.2 µM
- Kd [5]: 101 ± 3 µM
- Kd [6]: 70 ± 17 µM
- Kd [7]: 3.7 ± 0.2 µM
- Kd [3]: 1.8 ± 0.4 µM

SMILES: NCC(=O)O [glycine]
- Kd [1]: 5 ± 1 µM
- Kd [2]: 40 ± 2 µM
